From patent US11696928B2, “Compounds and use thereof in the expansion of stem cells and/or progenitor cells” (UNIVERSITE DE MONTREAL, priority 2017, dated 2023)

Key:
AhR = target: T1, AhR (Homo sapiens, UniProt P35869); assay: Inhibition of AhR-mediated gene transcription (HEK-XRE 11.1 luciferase reporter, MeBIO induction); type: cell-based; settings: HEK-XRE 11.1 cells, MeBIO 0.1 nM, luminescence after 24 hours; Table 1
T1 construct: One of the resultant clones was named HEK-XRE 11.1, and used in the reporter gene assays; endogenous in cells; host or cells: HEK-XRE 11.1 (HEK cells stably carrying the AhR-responsive luciferase reporter X4-4.27 and phRL-CMV)
T1 sequence (P35869 11-848): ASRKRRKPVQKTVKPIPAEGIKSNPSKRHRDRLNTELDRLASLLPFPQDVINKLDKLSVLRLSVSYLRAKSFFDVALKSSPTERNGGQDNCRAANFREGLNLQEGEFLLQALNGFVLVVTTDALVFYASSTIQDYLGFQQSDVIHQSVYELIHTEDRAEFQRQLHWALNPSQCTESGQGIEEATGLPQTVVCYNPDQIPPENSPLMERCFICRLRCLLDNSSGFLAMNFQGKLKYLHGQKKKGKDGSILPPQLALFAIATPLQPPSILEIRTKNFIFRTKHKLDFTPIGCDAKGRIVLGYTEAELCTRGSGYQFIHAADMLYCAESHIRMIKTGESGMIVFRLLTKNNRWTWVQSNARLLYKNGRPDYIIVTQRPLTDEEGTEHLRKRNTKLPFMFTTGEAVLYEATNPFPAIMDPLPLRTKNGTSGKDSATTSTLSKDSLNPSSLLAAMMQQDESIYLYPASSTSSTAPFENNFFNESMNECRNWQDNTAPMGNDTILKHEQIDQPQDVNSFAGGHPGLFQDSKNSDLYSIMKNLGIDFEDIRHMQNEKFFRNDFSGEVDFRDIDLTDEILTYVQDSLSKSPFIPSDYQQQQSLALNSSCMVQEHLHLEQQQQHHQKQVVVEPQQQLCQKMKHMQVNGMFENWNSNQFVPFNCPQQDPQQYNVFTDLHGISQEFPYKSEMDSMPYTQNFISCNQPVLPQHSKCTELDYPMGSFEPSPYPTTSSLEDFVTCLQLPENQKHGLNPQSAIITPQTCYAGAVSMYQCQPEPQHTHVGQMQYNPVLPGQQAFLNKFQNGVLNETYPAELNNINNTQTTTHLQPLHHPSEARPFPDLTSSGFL
Protocol: HEK cells line was transfected with an AhR-responsive firefly luciferase reporter gene X4-4.27 and the stable transfectants generated were again transfected with phRL-CMV (a Renilla luciferase expression vector; Promega) along with pBAsi-hU6 Pur DNA (a plasmid carrying the puromycin-resistant gene; TaKaRa, Shiga, Japan), and maintained in the presence of both hygromycin B and puromycin (2 mg/mL). One of the resultant clones was named HEK-XRE 11.1, and used in the reporter gene assays.
HEK-XRE 11.1 cells were plated in 384-well plates at a density of 25,000 cells in 50 uL volume per well. The induction of ARh pathway was done by addition of MeBIO at 0.1 nM concentration. ARh antagonist compounds were then added to seeded cells in serial dilutions (8 dilutions, 1:[…] down to 5 nM) in duplicate wells. Renilla expression was not used as internal control. On each plate, Compound 1001 and SR1 were added as dose control (8 dilutions, 1:3, 5 mM down to 2.5 nM for SR1 and 2 mM down to 1 nM for compound 1001). Luminescence activity was evaluated after 24 hours culture using Lumi-384-CellTiterGlo-Corning protocol. Dose-response curves were generated using nonlinear regression in Excel.

[1] = test system: Human CD34+ cord blood (CB) cells; assay: CD34+ activity assessment (7-day expansion of pre-expanded CD34+ cells, flow cytometry); type: cell-based; settings: concentration at which compound/vehicle ratio of CD34+ cell number is >= 1.5; 7 days, with 35 nM UM0128171; Table 1
Protocol: Human CD34+ cord blood (CB) cells were isolated from fresh units using RosetteSep™ 0034 pre-enrichment cocktail followed by CD34 positive selection using EasySep Kit™ (StemCell Technologies). The cells were then pre-expanded in bulk, by culturing at 37° C. for 6 days in HSC expansion media consisting of StemSpan ACF (StemCell Technologies) supplemented with 100 ng/mL Stem Cell Factor (SCF, Shenandoah), 100 ng/mL FMS-like Tyrosine Kinase 3 Ligand (FLT3L, Shenandoah), 50 ng/mL Thrombopoietin (TPO, Shenandoah), 2 mM GlutaMAX™ (Invitrogen), 10 μg/mL low density lipoproteins (LDL, StemCell Technologies), 10 μg/mL Ciprofloxacin and 35 nM UM0128171. […] Following the pre-expansion, cells were harvested, aliquoted and frozen until use.
For each activity assessment, CD34+ pre-expanded cells (approximately 2000 per well in a 384-well plate) were cultured in HSC expansion media, in the presence of 35 nM UM0128171. Compounds were serially diluted (1/2) in DMSO (10 dilutions per compound) and added to the cells in order to achieve a 1/1000 final dilution. StemRegenin1 (SR1) and/or Compound 1001 were included in all experiments as controls to monitor assay performance. The plate was incubated at 37° C. for 7 days in static conditions (i.e. no shaking and no addition of media). Flow cytometry analysis was performed at the end of the 7-day expansion. Cells were stained with PE-labeled anti-human CD45RA (BD Biosciences) and APC-labeled anti-human CD34 (BD Biosciences) and analyzed using Intellicyt IQue cytometer equipped with ForeCyt software. Gates were drawn around the populations of interest to obtain cell numbers and relative proportions. The EC1.5 value, which is the concentration at which the compound/vehicle ratio is greater or equal to 1.5, was calculated by plotting the CD34+ cell number against concentrations (log-scale) in a 4-PL curve and fitting the curve using IDBS XLfit (set model 251) in Microsoft Excel.

| Compound | IC50 (AhR) | EC1.5 [1] |
| --- | --- | --- |
| Nc1c(C(=O)Nc2ccccc2)sc2cnc(C(F)(F)F)cc12 [Compound 1025] | < 50 nM | 100 to 1000 nM |
| Nc1c(C(=O)Nc2ccncc2)sc2cnc(C(F)(F)F)cc12 [Compound 1026] | 50 to 500 nM | 1000 to 5000 nM |
| Cc1cc2c(N)c(C(=O)Nc3ccccc3)sc2nc1C [Compound 1005] | 50 to 500 nM | 100 to 1000 nM |
| Nc1c(C(=O)Nc2cccc3ncccc23)sc2ncc(C(F)(F)F)cc12 [Compound 1040] | 50 to 500 nM | >5000 nM |
| Cc1cnc2sc(C(=O)Nc3ccsc3)c(N)c2c1 [Compound 1150] | < 50 nM | 100 to 1000 nM |
| CCc1ccc(NC(=O)c2sc3ncc(C(F)(F)F)cc3c2N)cc1 [Compound 1024] | < 50 nM | 100 to 1000 nM |
| Nc1c(C(=O)Nc2ccsc2)sc2ncc(C(F)(F)F)cc12 [Compound 1100] | < 50 nM | <100 nM |
| COc1cc(NC(=O)c2sc3ncc(C(F)(F)F)cc3c2N)ccc1F [Compound 1121] | 50 to 500 nM | 100 to 1000 nM |
| Cc1cccc(NC(=O)c2sc3ncc(C(F)(F)F)cc3c2N)c1 [Compound 1094] | < 50 nM | <100 nM |
| Cc1cc(NC(=O)c2sc3ncc(C(F)(F)F)cc3c2N)ccc1Cl [Compound 1096] | 50 to 500 nM | 1000 to 5000 nM |
| Cc1ccc(NC(=O)c2sc3ccc(C(F)(F)F)cc3c2N)cc1 [Compound 1065] | 50 to 500 nM | 100 to 1000 nM |
| Cc1cccc(NC(=O)c2sc3ccc(C(F)(F)F)cc3c2N)c1 [Compound 1145] | 50 to 500 nM | >5000 nM |
| Nc1c(C(=O)Nc2ccc(-c3ccccc3)cc2)sc2ncc(C(F)(F)F)cc12 [Compound 1030] | 50 to 500 nM | >5000 nM |
| Cc1ccc(NC(=O)c2sc3ncc(C)cc3c2N)cc1 [Compound 1069] | < 50 nM | 100 to 1000 nM |
| COc1ccc(NC(=O)c2sc3ncc(C(F)(F)F)cc3c2N)cn1 [Compound 1071] | < 50 nM | 100 to 1000 nM |
| COc1cccc(NC(=O)c2sc3nc4c(cc3c2N)CCC4)c1 [Compound 1081] | < 50 nM | <100 nM |
| COc1cccc(NC(=O)c2sc3cnc(C(F)(F)F)cc3c2N)c1 [Compound 1080] | < 50 nM | 100 to 1000 nM |
| Cc1cnc2sc(C(=O)Nc3ccc(Br)cc3)c(N)c2c1 [Compound 1062] | < 50 nM | <100 nM |
| COc1ccc(NC(=O)c2sc3ccc(C)nc3c2N)cc1 [Compound 1129] | 50 to 500 nM | 100 to 1000 nM |
| Cc1cc(NC(=O)c2sc3ncc(C(F)(F)F)cc3c2N)ccc1F [Compound 1076] | 50 to 500 nM | 100 to 1000 nM |
| COc1ccc(NC(=O)c2sc3ncc(C(F)(F)F)cc3c2N)cc1 [Compound 1048] | < 50 nM | <100 nM |
| Cc1nc2cc(NC(=O)c3sc4ncc(C(F)(F)F)cc4c3N)ccc2s1 [Compound 1101] | < 50 nM | 100 to 1000 nM |

| Compound | IC50 (AhR) | EC1.5 [1] |
| --- | --- | --- |
| Nc1c(C(=O)Nc2ccc(Oc3ccccc3)cc2)sc2ncc(C(F)(F)F)cc12 [Compound 1092] | 50 to 500 nM | 100 to 1000 nM |
| Nc1c(C(=O)Nc2cccc(-c3cccnc3)c2)sc2ncc(C(F)(F)F)cc12 [Compound 1057] | < 50 nM | 1000 to 5000 nM |
| Nc1c(C(=O)Nc2ccc(S(N)(=O)=O)cc2)sc2ncc(C(F)(F)F)cc12 [Compound 1127] | 50 to 500 nM | >5000 nM |
| Nc1c(C(=O)Nc2cnc3ccccc3c2)sc2ncc(C(F)(F)F)cc12 [Compound 1042] | > 500 nM | 1000 to 5000 nM |
| CSc1ccc(NC(=O)c2sc3ccc(C(F)(F)F)cc3c2N)cc1 [Compound 1148] | 50 to 500 nM | 100 to 1000 nM |
| Nc1c(C(=O)Nc2ccc(OC(F)(F)F)cc2)sc2ncc(C(F)(F)F)cc12 [Compound 1084] | < 50 nM | <100 nM |
| Nc1c(C(=O)Nc2cccc(-c3ccncc3)c2)sc2ncc(C(F)(F)F)cc12 [Compound 1058] | < 50 nM | 100 to 1000 nM |
| Cc1cnc2sc(C(=O)Nc3cccc(Cl)c3)c(N)c2c1 [Compound 1139] | < 50 nM | 100 to 1000 nM |
| Nc1c(C(=O)Nc2ccc(OC(F)F)cc2)sc2ncc(C(F)(F)F)cc12 [Compound 1086] | < 50 nM | 100 to 1000 nM |
| Nc1c(C(=O)Nc2ccccc2)sc2ccc(C(F)(F)F)nc12 [Compound 1027] | < 50 nM | >5000 nM |
| COc1ccc(NC(=O)c2sc3ncc(C(F)(F)F)cc3c2N)cc1-c1ccccc1 [Compound 1033] | 50 to 500 nM | 100 to 1000 nM |
| Nc1c(C(=O)Nc2ccc(F)cc2)sc2ccc(C(F)(F)F)nc12 [Compound 1117] | < 50 nM | 100 to 1000 nM |
| Nc1c(C(=O)Nc2ccc(OCc3ccccc3)cc2)sc2ncc(C(F)(F)F)cc12 [Compound 1031] | 50 to 500 nM | 100 to 1000 nM |
| Cc1ccc(NC(=O)c2sc3ncc(C(F)(F)F)cc3c2N)cn1 [Compound 1070] | 50 to 500 nM | >5000 nM |
| Nc1c(C(=O)Nc2ccccc2)sc2nc3c(cc12)CCCC3 [Compound 1104] | 50 to 500 nM | 100 to 1000 nM |
| CCOc1ccc(NC(=O)c2sc3ncc(C(F)(F)F)cc3c2N)cc1 [Compound 1122] | < 50 nM | <100 nM |
| NC(=O)c1ccc(NC(=O)c2sc3ncc(C(F)(F)F)cc3c2N)cc1 [Compound 1123] | 50 to 500 nM | >5000 nM |
| Nc1c(C(=O)Nc2ccncc2)sc2ccc(C(F)(F)F)nc12 [Compound 1028] | 50 to 500 nM | >5000 nM |
| Nc1c(C(=O)Nc2ccc3c(c2)OCCO3)sc2ncc(C(F)(F)F)cc12 [Compound 1099] | 50 to 500 nM | <100 nM |
| Cc1cnc2sc(C(=O)Nc3ccc(Cl)cc3)c(N)c2c1 [Compound 1068] | < 50 nM | <100 nM |
| CCOC(=O)Cc1ccc(NC(=O)c2sc3ncc(C(F)(F)F)cc3c2N)cc1 [Compound 1032] | 50 to 500 nM | 1000 to 5000 nM |
| Nc1c(C(=O)Nc2ncccn2)sc2ncc(C(F)(F)F)cc12 [Compound 1107] | < 50 nM | 1000 to 5000 nM |
